{
  "source": "paper PMC10352257",
  "about": "“In vivo effects of the alpha-synuclein misfolding inhibitor minzasolmin supports clinical development in Parkinson’s disease” (NPJ Parkinson's Disease, 2023)",
  "tested_on": "Line 61 transgenic mice",
  "assay": "Round beam traversal test (composite gait score), 3-month administration study",
  "assay_type": "in vivo, mouse",
  "conditions": "for round beam composite score, Kruskal-Wallis mean rank: Line 61 tg, Line 61 tg/Vehicle 6.611, Non-tg/Vehicle 34.25",
  "text": "A transgenic mouse model of Parkinson’s disease overexpressing human wild-type ASYN under the murine Thy-1 promoter on a mixed C57Bl/6 background was used in the present studies (commonly referred to Line 61)[49]. The Line 61 transgenic mouse model of Parkinson’s disease develops extensive accumulation of ASYN in areas relevant to Parkinson’s disease[49]–[51], neurodegeneration (as evidenced by loss of tyrosine hydroxylase[52],[53] and dopamine transporter immunoreactivity[18] in the striatum), inflammation, and both motor and non-motor functional deficits. Multiple cohorts of mice were transferred from the University of California, San Diego to a Neuropore-funded AAALAC-accredited vivarium facility per a laboratory service agreement between Neuropore Therapies, Inc. and the laboratory of Dr. Eliezer Masliah under institutional animal care and use committee (IACUC) Protocol S02221. All in vivo testing was conducted by Neuropore personnel under Explora Biosciences animal care and use protocol (ACUP) number E15-016-2. Three-month-old male transgenic and age-matched non-transgenic littermate control mice were used and housed up to 5 per cage. Animals received free access to food and water prior to the experiment. The vivarium ambient room temperature was monitored daily and kept within a range of 68–72 degrees Fahrenheit. […]\nLine 61 transgenic mice have robust and visually apparent deficits in gait as evaluated in the round beam traversal test by 6 months of age that are improved by treatment with small molecule compounds including ASYN misfolding inhibitors[17],[18] and the molecular tweezer compound CLR01[56]. […] Videotapes were then scored by a secondary evaluator using a newly developed composite rating system for specific observed features of Line 61 gait during the round beam assessment. […] Scores were analyzed by nonparametric Kruskal–Wallis one-way ANOVA with key comparisons defined a priori, first to test for a phenotypic difference between vehicle-treated groups and then to test for minzasolmin-related treatment effects in Line 61 transgenic mice. […]",
  "note": "Entries after “also recorded” stand apart in the source; their conditions may differ.",
  "data": [
    {"smiles": "CCCC[C@H](Cc1c[nH]c2ccccc12)NC(=O)c1cnc(N2CCN(C)CC2)s1", "note": "[minzasolmin]", "values": [
      {"measurement": "effect on round beam composite score (gait) vs vehicle-treated Line 61 transgenic mice", "setting": "1 mg/kg, after 70 days of treatment, P < 0.01", "value": "improved; also recorded: attenuated"},
      {"measurement": "round beam composite score, Kruskal-Wallis mean rank", "setting": "1 mg/kg", "value": 21.77},
      {"measurement": "round beam composite score, Kruskal-Wallis mean rank", "setting": "5 mg/kg", "value": 16.80}
    ]}
  ]
}
